Source: PubChem BioAssay (NCI)
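Grown in 96-well plates, cells were treated for 48 hours with each compound at five concentrations. Insufficient inhibition: endpoint recorded as highest concentration tested. TGI marks complete inhibition of growth.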 Where a SMILES comes first, the peptide text is derived from it. The star is where a group is joined. Ethyl(2-NMe3+) = C[N+](C)(C)CC*; Boc = CC(C)(C)OC(=O)*

Tests used:
Assay in all cases: NCI-60 cell line screen, 48 h
COLO 205 colon = test system: COLO 205 colon
SW-620 colon = test system: SW-620 colon
MDA-N = test system: MDA-N
RPMI-8226 leukemia = test system: RPMI-8226 leukemia
IGROV1 ovarian = test system: IGROV1 ovarian
M14 melanoma = test system: M14 melanoma
NCI-H460 lung = test system: NCI-H460 lung
MDA-MB-435 = test system: MDA-MB-435
T-47D breast = test system: T-47D breast
HOP-92 NSCLC = test system: HOP-92 NSCLC
A498 renal = test system: A498 renal
HCT-15 colon = test system: HCT-15 colon
SF-268 CNS = test system: SF-268 CNS
SN12C renal = test system: SN12C renal
HCC-2998 colon = test system: HCC-2998 colon
MOLT-4 leukemia = test system: MOLT-4 leukemia

Measured: TGI

Cc1ccc2c(c1)CC1(Cc3c(C)cccc3C1=O)C2=O (centres undefined)
> 100 µM: COLO 205 colon | SW-620 colon | MDA-N | RPMI-8226 leukemia | IGROV1 ovarian | M14 melanoma | NCI-H460 lung | MDA-MB-435 | T-47D breast | HOP-92 NSCLC | A498 renal | HCT-15 colon | SF-268 CNS | SN12C renal | HCC-2998 colon | MOLT-4 leukemia

Nc1nc2n[nH]nc2c(=O)[nH]1
24.3 µM: COLO 205 colon
15.7 µM: RPMI-8226 leukemia
38.5 µM: HOP-92 NSCLC
32.8 µM: A498 renal
2.98 µM: M14 melanoma
10.5 µM: T-47D breast
15.4 µM: MDA-N
29 µM: MDA-MB-435
4.35 µM: MOLT-4 leukemia
> 100 µM: SW-620 colon | IGROV1 ovarian | HCT-15 colon | SF-268 CNS | SN12C renal | HCC-2998 colon
> 89.4 µM: NCI-H460 lung

COc1ccc(NC(=O)/C(=N/NC(N)=S)C2C(=O)NC(=S)NC2=O)c(OC)c1
> 100 µM: COLO 205 colon | SW-620 colon | MDA-N | RPMI-8226 leukemia | IGROV1 ovarian | M14 melanoma | NCI-H460 lung | MDA-MB-435 | T-47D breast | HOP-92 NSCLC | A498 renal | HCT-15 colon | SF-268 CNS | SN12C renal | HCC-2998 colon | MOLT-4 leukemia

CC1=NN(C(=O)CC(=O)Nc2ccc(C)cc2)C(=O)C1N=Nc1ccc(S(=O)(=O)c2ccc(N=NC3C(=O)N(C(=O)CC(=O)Nc4ccc(C)cc4)N=C3C)cc2)cc1 (centres undefined)
> 100 µM: COLO 205 colon | SW-620 colon | MDA-N | RPMI-8226 leukemia | IGROV1 ovarian | M14 melanoma | NCI-H460 lung | MDA-MB-435 | T-47D breast | HOP-92 NSCLC | A498 renal | HCT-15 colon | SF-268 CNS | SN12C renal | HCC-2998 colon | MOLT-4 leukemia

Cc1c(F)c(N)c2c(=O)cc(-c3ccc(N)c(F)c3)oc2c1F
25.2 µM: IGROV1 ovarian
> 89 µM: MDA-N
> 96.1 µM: RPMI-8226 leukemia
56.7 µM: SN12C renal
8.74 µM: A498 renal
24.2 µM: NCI-H460 lung
63.8 µM: HOP-92 NSCLC
> 100 µM: COLO 205 colon | SW-620 colon | M14 melanoma | MDA-MB-435 | HCT-15 colon | HCC-2998 colon | MOLT-4 leukemia
76.7 µM: SF-268 CNS
16 µM: T-47D breast

C#C[C@]1(O)CC[C@H]2[C@@H]3CCC4=C/C(=N/NC(=O)c5cccc6cc7ccccc7nc56)CC[C@@H]4[C@H]3CC[C@@]21CC
66.2 µM: T-47D breast
> 100 µM: COLO 205 colon | SW-620 colon | MDA-N | RPMI-8226 leukemia | IGROV1 ovarian | M14 melanoma | NCI-H460 lung | MDA-MB-435 | HOP-92 NSCLC | A498 renal | HCT-15 colon | SF-268 CNS | SN12C renal | HCC-2998 colon | MOLT-4 leukemia

CCOC(=O)[C@@H]1CCN2CN(c3ccc(OC)cc3)N=C(c3ccccc3)[C@@]12c1ccccc1
51.3 µM: M14 melanoma
61.3 µM: COLO 205 colon
> 100 µM: SW-620 colon | MDA-N | NCI-H460 lung | MDA-MB-435 | SF-268 CNS | MOLT-4 leukemia
67.1 µM: HCC-2998 colon
34.7 µM: SN12C renal
53.5 µM: A498 renal
74.6 µM: T-47D breast
82.6 µM: RPMI-8226 leukemia
80.6 µM: HCT-15 colon
72.1 µM: IGROV1 ovarian
27.9 µM: HOP-92 NSCLC

O=C(Cc1ccc(Cl)cc1)Nc1ccc2oc(-c3ccccc3)nc2c1
> 100 µM: COLO 205 colon | SW-620 colon | MDA-N | RPMI-8226 leukemia | IGROV1 ovarian | M14 melanoma | NCI-H460 lung | MDA-MB-435 | T-47D breast | HOP-92 NSCLC | A498 renal | HCT-15 colon | SF-268 CNS | SN12C renal | HCC-2998 colon | MOLT-4 leukemia

CC(NC(=O)C(Cc1ccc(OCC[N+](C)(C)C)cc1)NC(=O)OC(C)(C)C)C(=O)NC(Cc1ccccc1)C(=O)NCC(N)=O (centres undefined) (Boc-Y(Ethyl(2-NMe3+))AFG-NH2; configuration not given here)
> 100 µM: COLO 205 colon | SW-620 colon | MDA-N | RPMI-8226 leukemia | M14 melanoma | NCI-H460 lung | MDA-MB-435 | T-47D breast | HCT-15 colon | SN12C renal | MOLT-4 leukemia
48.8 µM: HCC-2998 colon
29.6 µM: HOP-92 NSCLC
33.3 µM: A498 renal
58.4 µM: IGROV1 ovarian
25.7 µM: SF-268 CNS
